Experiments:
Format in all cases: biochemical
[1] = target: T1, T. th. RecA (Thermus thermophilus, UniProt Q5SHB2); test: PCR with rTaq-HS polymerase: influence of reaction solution composition on T. th. RecA performance, with and without ATP (Example 1); conditions: 400 μM ATP plus 0.4 μg T. th. RecA, rTaq buffer, 35 cycles, human genome DNA, Primer Sets 1-6; compared with T. th. RecA only
T1 construct: made in house
T1 sequence (Q5SHB2 1-340): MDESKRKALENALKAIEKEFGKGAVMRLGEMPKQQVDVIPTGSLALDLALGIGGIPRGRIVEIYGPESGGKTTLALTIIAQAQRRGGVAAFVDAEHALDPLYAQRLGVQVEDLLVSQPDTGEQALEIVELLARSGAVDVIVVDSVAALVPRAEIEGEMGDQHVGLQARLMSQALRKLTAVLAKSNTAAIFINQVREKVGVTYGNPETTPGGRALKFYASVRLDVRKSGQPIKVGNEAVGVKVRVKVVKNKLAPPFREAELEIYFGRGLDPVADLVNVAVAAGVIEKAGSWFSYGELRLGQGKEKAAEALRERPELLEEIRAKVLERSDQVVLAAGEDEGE
Method: The PCR amplification reaction was carried out using a human genome DNA as a template and Primer Set 1. Four kinds of PCR reaction solution were prepared as shown below. Specifically, Reaction solution A was prepared by using 1×rTaq buffer (manufactured by Takara Bio Inc.) as a buffer solution, and Reaction solution B was prepared by adding T. th. RecA further to Reaction solution A. Reaction solution C was prepared by using Taq buffer (manufactured by Takara Bio Inc.) as a buffer solution and adding T. th. RecA. Reaction solution D was prepared by adding T. th. RecA and ATP further to Reaction solution A. The composition of each of the reaction solutions is as shown below. As a DNA polymerase, an rTaq-HS polymerase (manufactured by Takara Bio Inc.) was used.
The above reaction solutions were thermally denatured at 94° C. for 30 seconds. Thereafter, the amplification reaction was carried out with 35 cycles (1 cycle: at 94° C. for 15 seconds, at 55° C. for 30 seconds and at 72° C. for 90 seconds). Thereafter, the amplification reaction was completed by the final reaction cycle at 72° C. for 3 minutes and at 4° C. for 10 minutes. After the amplification, 10 μl of the reaction solution was subjected to electrophoresis with 1.2% agarose gel. After the electrophoresis, the bands were visualized by staining the gel with ethidium bromide, and then the electrophoresis gel was photographed. […]

[2] = target: T1, T. th. RecA; test: PCR with rTaq-HS polymerase over 28, 32 or 36 cycles: decrease in T. th. RecA performance, with and without ATP (Example 2); conditions: 400 μM ATP plus 0.4 μg T. th. RecA, Taq buffer, 28, 32 or 36 cycles, Primer Sets 7-9; compared with T. th. RecA only
Method: The PCR amplification reaction was carried out using a human genome DNA as a template and Primer Set 7. Two kinds of PCR reaction solution were prepared as shown below. Specifically, Reaction solution E was prepared by adding T. th. RecA only. Reaction solution F was prepared by adding ATP in addition to T. th. RecA. The composition of each of the reaction solutions is as shown below. As a DNA polymerase, an rTaq-HS polymerase was used.
(§1) The above reaction solutions were thermally denatured at 94° C. for 30 seconds. Thereafter, the amplification reaction was conducted in 28, 32 or 36 cycles (1 cycle: at 94° C. for 15 seconds, at 55° C. for 30 seconds and at 72° C. for 90 seconds). And Thereafter, the amplification reaction was completed by the final reaction cycle at 72° C. for 3 minutes and at 4° C. for 10 minutes. After the amplification, 10 μl of the reaction solution was subjected to electrophoresis with 1.2% agarose gel. After the electrophoresis, the bands were visualized by staining the gel with ethidium bromide, and then the electrophoresis gel was photographed. Furthermore, the same experiment was conducted using Primer Sets 8 and 9.

[3] = target: T1, T. th. RecA; test: PCR with Ex Taq-HS polymerase with T. th. RecA and ATP (Example 3); conditions: 400 μM ATP plus 0.4 μg T. th. RecA, 36 cycles, Primer Sets 1-6 and 8, compared with no addition
Method: The PCR amplification reaction was carried out using a human genome DNA as a template and Primer Set 1. Two kinds of PCR reaction solutions were prepared as shown below. Specifically, Reaction solution G was prepared with a composition of a general PCR reaction solution without adding any of T. th. RecA and ATP (Control). Reaction solution H was prepared by adding T. th. RecA and ATP further to Reaction solution G. The composition of each of the reaction solutions is as shown below. As a DNA polymerase, an Ex Taq-HS polymerase was used.
as §1, with “carried out with” for “conducted in 28, 32 or”, “seconds).” for “seconds). And”, “2, 3, 4, 5, 6” for “8”, “8.” for “9.”

[4] = target: T1, T. th. RecA; test: PCR with rTaq-HS polymerase with various nucleotide 5'-triphosphates and T. th. RecA (Example 4); conditions: 36 cycles; for non-specific amplification in PCR (agarose gel): rTaq buffer
Method: The PCR amplification reaction was carried out using a human genome DNA as a template and Primer Set 1. Seven kinds of PCR reaction solution were prepared as shown below. Specifically, Reaction solution I was a general PCR reaction solution and prepared without adding any of T. th. RecA and nucleotide 5′-triphosphate (Control). Reaction solution J was prepared by adding T. th. RecA to Reaction solution I. Reaction solutions K, L, M and N were prepared by adding GTP, ATP, UTP and CTP to Reaction solution J, respectively. Reaction solution O was prepared by adding only ATP to Reaction solution I without adding T. th. RecA. The composition of each of the reaction solutions is as shown below. As a DNA polymerase, an rTaq-HS polymerase was used.
as §1, with “carried out with” for “conducted in 28, 32 or”, “seconds).” for “seconds). And”, “2, 3, 4, 5, 6” for “8”, “8.” for “9.”

[5] = target: T1, T. th. RecA; test: PCR with ExTaq-HS polymerase, effects of primer length, Primer Sets 10-15 (Example 5); conditions: 0.4 mM ATP plus 0.4 μg T. th. RecA, 35 cycles, primer base length 20 to 45 (Primer Sets 10-15)
Method: The PCR amplification reaction was carried out using a human genome DNA as a template and the primer sets of various lengths. The primer sets used here were Primer Sets 10, 11, 12, 13, 14 and 15 with the base length of 20, 25, 30, 35, 40 and 45, respectively. Two kinds of PCR reaction solution were prepared as shown below. Specifically, Reaction solution P was prepared by adding T. th. RecA and ATP. Reaction solution Q was prepared similarly to Reaction solution P except that ATP was not added. The composition of each of the reaction solutions is as shown below. As a DNA polymerase, an ExTaq-HS polymerase (manufactured by Takara Bio Inc.) was used.
The above reaction solutions were thermally denatured at 94° C. for 30 seconds. Thereafter, the amplification reaction was carried out with 35 cycles (1 cycle: at 94° C. for 15 seconds, at 55° C. for 30 seconds and at 72° C. for 90 seconds). Thereafter, the amplification reaction was completed by the final reaction cycle at 72° C. for 3 minutes and at 4° C. for 10 minutes. After the amplification, 10 μl of the reaction solution was subjected to electrophoresis with 1.2% agarose gel. After the electrophoresis, the bands were visualized by staining the gel with ethidium bromide, and then the electrophoresis gel was photographed.

[6] = target: T1, T. th. RecA; test: PCR with ExTaq-HS polymerase, effects of primer length, Primer Sets 16-21 (Example 6); conditions: 0.4 mM ATP plus 0.4 μg T. th. RecA, primer base length 20 to 45 (Primer Sets 16-21)
Method: The PCR amplification reaction was carried out using a human genome DNA as a template and the primer sets of various lengths. The primer sets used here were Primer Sets 16, 17, 18, 19, 20 and 21 with the base lengths of 20, 25, 30, 35, 40 and 45. The same PCR reaction solutions as in Example 5 were used. Specifically, Reaction solution P was prepared by adding T. th. RecA and ATP. Reaction solution Q was prepared similarly to Reaction solution P except that ATP was not added. As a DNA polymerase, an ExTaq-HS polymerase (manufactured by Takara Bio Inc.) was used. Then, the PCR reaction was carried out under the same conditions as in Example 5, then electrophoresis and staining of the electrophoresed gel were conducted, and then photographing was conducted according to the same procedures as in Example 5.

[7] = target: T1, T. th. RecA; test: PCR with T. th. DNA polymerase, combination of T. th. RecA with ATP (Example 7); conditions: 35 cycles
Method: PCR amplification by the T. th. DNA polymerase was carried out using a human genome DNA as a template and Primer Set 1. Five kinds of PCR reaction solution were prepared as shown below. Specifically, Reaction solution R was prepared by adding T. th. RecA and ATP. Reaction solution S was prepared similarly to Reaction solution R except that ATP was not added. Reaction solution T was prepared similarly to Reaction solution R except that ATP and T. th. […] Reaction solution U was prepared similarly to Reaction solution R except that T. th. RecA and ATP were not added but a T. th. RecA storage buffer was added instead. Further, Reaction solution V was prepared similarly to Reaction solution R except that T. th. RecA was not added. The composition of each of the reaction solutions is as shown below.
The above reaction solutions were thermally denatured at 92° C. for 30 seconds. Then, amplification reaction was carried out with 35 cycles (1 cycle: at 94° C. for 15 seconds, at 55° C. for 30 seconds and at 68° C. for 90 seconds). Thereafter, the amplification reaction was completed by the final reaction cycle at 68° C. for 3 minutes and at 4° C. for 10 minutes. After the amplification, 10 μl of the reaction solution was subjected to electrophoresis with 1.2% agarose gel. […]

[8] = target: T1, T. th. RecA; test: PCR and multiplex PCR with T. th. DNA polymerase, T. th. RecA and ATP (Example 8); conditions: 0.4 mM ATP plus 0.4 μg T. th. RecA
Method: The PCR amplification reaction by the T. th. DNA polymerase was carried out using a human genome DNA as a template. The primer sets used herein were Primer Sets 22, 23, 24, 25, 26, 27, 28, 29, 30, 31, 32, 33, 1 and 2. In addition, multiplex PCR was carried out in which these primer sets were added in one reaction system and amplified. Two kinds of PCR reaction solution were prepared as shown below. Specifically, Reaction solution W was prepared by adding T. th. RecA and ATP. Reaction solution X was prepared similarly to Reaction solution W except that T. th. RecA and ATP were not added but a T. th. RecA storage buffer was added instead.
The above reaction solutions were thermally denatured at 92° C. for 30 seconds. Thereafter, the amplification reaction was carried out with 35 cycles (1 cycle: at 94° C. for 15 seconds, at 55° C. for 30 seconds and at 68° C. for 2 minutes). Thereafter, the amplification reaction was completed by the final reaction cycle at 68° C. for 3 minutes and at 4° C. for 10 minutes. After the amplification, 3 μl of the reaction solution was subjected to electrophoresis with 12.5% acrylamide gel. After the electrophoresis, the bands were visualized by staining the gel with cyber green, and then the electrophoresis gel was photographed.

Nc1ncnc2c1ncn2[C@@H]1O[C@H](COP(=O)(O)OP(=O)(O)OP(=O)(O)O)[C@@H](O)[C@H]1O [ATP, adenosine 5′-triphosphate]
non-specific amplification in PCR (agarose gel) [1]: non-specific amplification can be remarkably reduced
non-specific amplification in PCR (agarose gel) [2]: non-specific amplification can be suppressed
non-specific amplification in PCR (agarose gel) [3]: non-specific amplification was suppressed
non-specific amplification in PCR (agarose gel) ([4]; 400 μM ATP alone, without T. th. RecA, Lanes 43 to 49): non-specific amplification was not suppressed
suppression of non-specific amplification, comparison among the NTP and T. th. RecA combinations ([4]; 400 μM GTP, ATP, UTP or CTP plus 0.4 μg T. th. RecA): suppressed non-specific amplification the most
non-specific amplification in PCR (agarose gel) ([4]; 400 μM NTP plus 0.4 μg T. th. RecA, Primer Sets 1-6 and 8, compared with T. th. RecA only): non-specific amplification can be suppressed
non-specific amplification in PCR (agarose gel) [5]: non-specific amplification can be remarkably reduced
non-specific amplification in PCR (agarose gel) [6]: non-specific amplification was remarkably suppressed
non-specific amplification in PCR (agarose gel) ([7]; 0.4 mM ATP only, without T. th. RecA): production of non-specific amplification products was found
non-specific amplification in PCR (agarose gel) ([7]; 0.4 mM ATP plus 0.4 μg T. th. RecA, Primer Sets 1-6 and 8): non-specific amplification was remarkably suppressed
non-specific amplification in PCR (acrylamide gel) ([8]; 35 cycles, single primer sets 22-33, 1 and 2 (Lanes 1 to 14)): non-specific amplification was remarkably suppressed
specific amplification in multiplex PCR (acrylamide gel) ([8]; all 14 primer sets in one reaction system (Lane 15)): the target sequences corresponding to each of the primer sets were specifically amplified
